Columns and labels:
[1] = system: Lactobacillus fructivores (NBRC 13954); assay: Antimicrobial action of oxygen-containing heterocyclic compounds in soy sauce (Test Example 7); assay type: cell-based; settings: NBRC13954, 168 h, salt 4% (w/v), alcohol 5% (v/v); for activity at 0.1 ppm: test substance 0.1 ppm; for activity at 0.5 ppm: test substance 0.5 ppm; for activity at 1 ppm: test substance 1 ppm; for activity at 5 ppm: test substance 5 ppm; for activity at 25 ppm: test substance 25 ppm; for activity at 50 ppm: test substance 50 ppm
Method: (§1) Commercially available whole soybean soy sauce (produced by Kikkoman Corporation) was electrodialyzed and then concentrated under reduced pressure to produce soy sauce at a salt concentration of 0% (w/v) and an alcohol concentration of 0% (v/v). Then, salt and/or alcohol was added to the above-mentioned obtained soy sauce, and the mixture was then heat-treated to produce soy sauce at a salt concentration of 4% (w/v) and an alcohol concentration of 5% (v/v).
The test substance described in Table 21 was added to the soy sauce produced in Test Example 6 to concentrations of 0.1 ppm, 0.5 ppm, 1 ppm, 5 ppm, 25 ppm, and 50 ppm. Lactic acid bacteria (Lactobacillus fructivores (NBRC 13954)) were then added to 10^4 to 10^5 cells/mL and cultured at 30° C. for 7 days. After the culture, the number of lactic acid bacteria was measured using Difco Lactobacilli MRS Agar. Soy sauce to which the test substance was not added was used as a control group, and the antimicrobial activity was evaluated in comparison with the number of lactic acid bacteria in the control group. The evaluation was performed using the following criterion.
• A: The bacterial count decreases to less than 10% of the bacterial count of a control group. • B: The bacterial count decreases to 10% or more and less than 50% of the bacterial count of the control group. • C: The bacterial count decreases to 50% or more and less than 100% of the bacterial count of the control group. • D: The bacterial count is the same as the bacterial count of the control group.

[2] = system: Lactobacillus rennini (DSM 20253); assay: Antimicrobial action of oxygen-containing heterocyclic compounds in soy sauce (Test Example 6); assay type: cell-based; design: key to Antimicrobial activity: A: The bacterial count decreases to less than 10% of the bacterial count of the control group.; B: The bacterial count decreases to 10% or more and less than 50% of the bacterial count of the control group.; C: The bacterial count decreases to 50% or more and less than 100% of the bacterial count of control group.; D: The bacterial count is the same as the bacterial count of the control group; settings: salt 4% (w/v), alcohol 5% (v/v); for activity at 1 ppm / activity at 5 ppm / activity at 10 ppm / activity at 25 ppm / activity at 50 ppm / activity at 100 ppm: Loigolactobacillus rennini, DSM20253, 168 h; for activity at 1 ppm / Antimicrobial activity: test substance 1 ppm; for activity at 5 ppm: test substance 5 ppm; for activity at 10 ppm: test substance 10 ppm; for activity at 25 ppm: test substance 25 ppm; for activity at 50 ppm: test substance 50 ppm; for activity at 100 ppm: test substance 100 ppm
Method: as §1
The test substance described in Table 20 was added to the above-mentioned produced soy sauce to concentrations of 1 to 100 ppm. Lactic acid bacteria (Lactobacillus rennini (DSM 20253)) were then added to 10^6 to 10^7 cells/mL and cultured at 30° C. for 7 days. After the culture, the number of lactic acid bacteria was measured using the GAM agar medium “Nissui”. Soy sauce to which licoricidin was not added was used as a control group, and the antimicrobial activity was evaluated in comparison with the number of lactic acid bacteria in the control group. The evaluation was performed using the criterion shown below.
• A: The bacterial count decreases to less than 10% of the bacterial count of the control group. • B: The bacterial count decreases to 10% or more and less than 50% of the bacterial count of control group. • C: The bacterial count decreases to 50% or more and less than 100% of the bacterial count of the control group. • D: The bacterial count is the same as the bacterial count of the control group. • -: Not evaluated

CC(C)=CCc1c(O)c(CC=C(C)C)c2occ(-c3ccc(O)cc3)c(=O)c2c1O [8-(γ,γ-dimethylallyl)-wighteone, 6,8-bis(3-methyl-2-butenyl)-3-(4-hydroxyphenyl)-5,7-dihydroxy-4H-1-benzopyran-4-one]
activity at 0.1 ppm [1]: 10 to 50%
activity at 0.5 ppm [1]: 10 to 50%
activity at 1 ppm [1]: 10 to 50%
activity at 5 ppm [1]: < 10%
activity at 25 ppm [1]: < 10%
activity at 50 ppm [1]: < 10%
activity at 1 ppm [2]: 50 to 100%
activity at 5 ppm [2]: < 10%
activity at 10 ppm [2]: < 10%
activity at 25 ppm [2]: < 10%
activity at 50 ppm [2]: < 10%
activity at 100 ppm [2]: < 10%

COc1cc2oc(-c3ccc(O)cc3O)cc2c(OC)c1CC=C(C)C [Gancaonin I, 5-(3-methyl-2-butenyl)-2-(2,4-dihydroxyphenyl)-4,6-dimethoxybenzofuran]
activity at 0.1 ppm [1]: 10 to 50%
activity at 0.5 ppm [1]: 50 to 100%
activity at 1 ppm [1]: 10 to 50%
activity at 5 ppm [1]: 50 to 100%
activity at 25 ppm [1]: 10 to 50%
activity at 50 ppm [1]: < 10%
activity at 1 ppm [2]: 50 to 100%
activity at 5 ppm [2]: < 10%
activity at 10 ppm [2]: < 10%
activity at 25 ppm [2]: < 10%
activity at 50 ppm [2]: < 10%
activity at 100 ppm [2]: < 10%

COc1c(CC=C(C)C)c(O)cc2c1C[C@H](c1ccc(O)cc1O)CO2 [Glyasperin C, (3R)-3β(2,4-dihydroxyphenyl)-5-methoxy-6-(3-methyl-2-butenyl)-3,4-dihydro-2H-1-benzopyran-7-ol]
activity at 0.1 ppm [1]: 10 to 50%
activity at 0.5 ppm [1]: 10 to 50%
activity at 1 ppm [1]: 10 to 50%
activity at 5 ppm [1]: 10 to 50%
activity at 25 ppm [1]: 10 to 50%
activity at 50 ppm [1]: < 10%
activity at 1 ppm [2]: 10 to 50%
activity at 5 ppm [2]: 10 to 50%
activity at 10 ppm [2]: 10 to 50%
activity at 25 ppm [2]: < 10%
activity at 50 ppm [2]: < 10%
activity at 100 ppm [2]: < 10%

COc1c(CC=C(C)C)c(O)cc2oc(=O)c(-c3ccc(O)cc3O)cc12 [Glycycoumarin, 3-(2,4-dihydroxyphenyl)-7-hydroxy-5-methoxy-6-(3-methyl-2-butenyl)-2H-1-benzopyran-2-one]
activity at 0.1 ppm [1]: 10 to 50%
activity at 0.5 ppm [1]: 10 to 50%
activity at 1 ppm [1]: 10 to 50%
activity at 5 ppm [1]: 10 to 50%
activity at 25 ppm [1]: < 10%
activity at 50 ppm [1]: < 10%
activity at 5 ppm [2]: 10 to 50%
activity at 10 ppm [2]: 10 to 50%
activity at 25 ppm [2]: < 10%
activity at 50 ppm [2]: < 10%
activity at 100 ppm [2]: < 10%
Antimicrobial activity [2]: D

COc1cc2oc(=O)c(-c3ccc(O)cc3O)cc2c(OC)c1CC=C(C)C [Glycyrin, 3-(2,4-dihydroxyphenyl)-5,7-dimethoxy-6-(3-methyl-2-butenyl)-2H-1-benzopyran-2-one]
activity at 0.1 ppm [1]: 10 to 50%
activity at 0.5 ppm [1]: 10 to 50%
activity at 1 ppm [1]: 10 to 50%
activity at 5 ppm [1]: 10 to 50%
activity at 25 ppm [1]: 10 to 50%
activity at 50 ppm [1]: 10 to 50%
activity at 5 ppm [2]: 10 to 50%
activity at 10 ppm [2]: 10 to 50%
activity at 25 ppm [2]: < 10%
activity at 50 ppm [2]: < 10%
activity at 100 ppm [2]: < 10%
Antimicrobial activity [2]: D

CC(C)=CCc1cc(-c2coc3cc(O)c(CC=C(C)C)c(O)c3c2=O)cc(O)c1O [Isoangustone A, 3-[3,4-dihydroxy-5-(3-methyl-2-butenyl)phenyl]-5,7-dihydroxy-6-(3-methyl-2-butenyl)-4H-chromen-4-one]
activity at 0.1 ppm [1]: 10 to 50%
activity at 0.5 ppm [1]: 10 to 50%
activity at 1 ppm [1]: 50 to 100%
activity at 5 ppm [1]: 10 to 50%
activity at 25 ppm [1]: < 10%
activity at 50 ppm [1]: < 10%
activity at 1 ppm [2]: 10 to 50%
activity at 5 ppm [2]: < 10%
activity at 10 ppm [2]: < 10%
activity at 25 ppm [2]: < 10%
activity at 50 ppm [2]: < 10%
activity at 100 ppm [2]: < 10%

C=CC(C)(C)c1c(O)cc(OC)c2cc(-c3ccc(O)cc3O)c(=O)oc12 [Licoarylcoumarin, 3-(2,4-dihydroxyphenyl)-7-hydroxy-5-methoxy-8-(2-methyl-3-butene-2-yl)coumarin]
activity at 0.1 ppm [1]: 10 to 50%
activity at 0.5 ppm [1]: 10 to 50%
activity at 1 ppm [1]: 10 to 50%
activity at 5 ppm [1]: 50 to 100%
activity at 25 ppm [1]: 10 to 50%
activity at 50 ppm [1]: 10 to 50%
activity at 5 ppm [2]: 50 to 100%
activity at 10 ppm [2]: 50 to 100%
activity at 25 ppm [2]: 10 to 50%
activity at 50 ppm [2]: 10 to 50%
activity at 100 ppm [2]: < 10%
Antimicrobial activity [2]: D

Source: US20230276831A1, “Food/Beverage Article” (Kikkoman Corporation, priority 2020, published 2023)
